Results: ChEMBL document CHEMBL1124687, “Analogues of atriopeptin(103-125)amide having high binding selectivity” (J Med Chem, 1989)
Positions of bridges follow the written chain, without caps; N, C: chain ends. Non-standard residues stand in square brackets, D forms with d. Residues, ends and D or L forms follow the SMILES beside them. ξ: configuration not given here. Nva = CCC[C@H](N)C(=O)O; Abu = CC[C@H](N)C(=O)O; ξA = CC(N)C(=O)O

How the values were obtained:
[1] = target: T1, Atrial natriuretic peptide receptor 3 (Homo sapiens) (UniProt P17342); assay: Binding affinity for non-vasorelaxant receptor by competitive displacement of [125I]-AP(103-126) from rabbit lung membranes; type: tissue-based; conditions: Oryctolagus cuniculus, Membrane, target entry is the homologue from another species
T1 sequence (whole entry): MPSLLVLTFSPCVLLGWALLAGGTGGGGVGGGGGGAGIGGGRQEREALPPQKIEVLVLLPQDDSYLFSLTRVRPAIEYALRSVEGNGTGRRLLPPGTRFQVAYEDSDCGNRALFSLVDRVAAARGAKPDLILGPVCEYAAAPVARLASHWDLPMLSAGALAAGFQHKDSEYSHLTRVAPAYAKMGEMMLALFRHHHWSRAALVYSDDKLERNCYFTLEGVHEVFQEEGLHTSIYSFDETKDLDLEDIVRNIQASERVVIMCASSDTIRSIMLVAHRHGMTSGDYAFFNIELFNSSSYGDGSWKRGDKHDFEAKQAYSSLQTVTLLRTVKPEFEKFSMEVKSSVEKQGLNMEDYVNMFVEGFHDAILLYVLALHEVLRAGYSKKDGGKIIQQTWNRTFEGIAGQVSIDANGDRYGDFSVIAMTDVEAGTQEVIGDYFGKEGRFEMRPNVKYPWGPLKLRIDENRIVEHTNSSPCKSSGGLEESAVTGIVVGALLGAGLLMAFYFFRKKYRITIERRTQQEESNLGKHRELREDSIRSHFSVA

Oryctolagus cuniculus = species on record: Oryctolagus cuniculus; assay: Binding affinity for vasorelaxant receptor by competitive displacement of [125I]-AP(103-126) from rabbit lung membranes; type: tissue-based; conditions: Membrane
[2] = target: Atrial natriuretic peptide receptor (Homo sapiens) (UniProt P20594+P16066+P17342); assay: Selectivity factor, ratio of NVR and VR relative binding potency; type: protein assay; conditions: Oryctolagus cuniculus

| Structure (SMILES) | Relative potency [1] | Relative potency (Oryctolagus cuniculus) | Ratio [2] |
| --- | --- | --- | --- |
| CC[C@H](C)[C@@H]1NC(=O)[C@H](CCCN=C(N)N)NC(=O)CNC(=O)CNC(=O)[C@H](Cc2ccccc2)NC(=O)[C@H](CO)NC(=O)[C@@H](NC(=O)[C@@H](N)CO)CSSC[C@@H](C(=O)N[C@@H](CO)C(=O)N[C@@H](Cc2ccccc2)C(=O)N[C@@H](CCCN=C(N)N)C(N)=O)NC(=O)[C@H](CO)NC(=O)CNC(=O)[C@H](CC(C)C)NC(=O)CNC(=O)[C@H](CO)NC(=O)[C@H](CCC(N)=O)NC(=O)[C@H](C)NC(=O)CNC(=O)[C@H]([C@@H](C)CC)NC(=O)[C@@H](CCCN=C(N)N)NC(=O)[C@H](CC(=O)O)NC1=O | 2 | 0.005 | 400 |
| CC[C@H](C)[C@@H]1NC(=O)[C@H](CCCN=C(N)N)NC(=O)[C@H](CC(=O)O)NC(=O)[C@H]([C@@H](C)CC)NC(=O)[C@H](CCCN=C(N)N)NC(=O)CNC(=O)CNC(=O)[C@H](Cc2ccccc2)NC(=O)CNC(=O)[C@@H](NC(=O)[C@@H](N)CO)CSSC[C@H](C(=O)N[C@@H](CC(N)=O)C(=O)N[C@@H](CO)C(=O)N[C@@H](Cc2ccccc2)C(=O)N[C@@H](CCCN=C(N)N)C(N)=O)NC(=O)CNC(=O)[C@H](CC(C)C)NC(=O)CNC(=O)[C@H](CO)NC(=O)[C@H](CCC(N)=O)NC(=O)[C@H](C)NC(=O)CNC1=O | 1.8 | 0.056 | 32 |
| CC[C@H](C)[C@@H]1NC(=O)[C@H](CCCN=C(N)N)NC(=O)[C@H](CC(=O)O)NC(=O)[C@H]([C@@H](C)CC)NC(=O)[C@H](CCCN=C(N)N)NC(=O)CNC(=O)CNC(=O)[C@H](Cc2ccccc2)NC(=O)[C@H](NC(=O)[C@H](CO)NC(=O)[C@@H](N)CO)CSSC[C@@H](C(=O)N[C@@H](CO)C(=O)N[C@@H](Cc2ccccc2)C(=O)N[C@@H](CCCN=C(N)N)C(N)=O)NC(=O)[C@H](CSC)NC(=O)CNC(=O)[C@H](CC(C)C)NC(=O)CNC(=O)[C@H](CO)NC(=O)[C@H](CCC(N)=O)NC(=O)[C@H](C)NC(=O)CNC1=O | 3.1 | 0.1 | 31 |
| CC[C@H](C)[C@@H]1NC(=O)[C@H](CCCN=C(N)N)NC(=O)[C@H](CC(=O)O)NC(=O)[C@H]([C@@H](C)CC)NC(=O)[C@H](CCCN=C(N)N)NC(=O)CNC(=O)CNC(=O)[C@H](Cc2ccccc2)NC(=O)[C@H](CSC)NC(=O)[C@@H](NC(=O)[C@@H](N)CO)CSSC[C@@H](C(=O)N[C@@H](CC(N)=O)C(=O)N[C@@H](CO)C(=O)N[C@@H](Cc2ccccc2)C(=O)N[C@@H](CCCN=C(N)N)C(N)=O)NC(=O)CNC(=O)[C@H](CC(C)C)NC(=O)CNC(=O)[C@H](CO)NC(=O)[C@H](CCC(N)=O)NC(=O)[C@H](C)NC(=O)CNC1=O (H-SCC(Me)FGGRIDRIGAQSGLGCNSFR-NH2; disulfide 2-19) | 6.6 | 0.28 | 24 |
| CC[C@H](C)[C@@H]1NC(=O)[C@H](CCCN=C(N)N)NC(=O)[C@H](CC(=O)O)NC(=O)[C@H]([C@@H](C)CC)NC(=O)[C@H](CCCN=C(N)N)NC(=O)CNC(=O)CNC(=O)[C@H](Cc2ccccc2)NC(=O)CNC(=O)[C@@H](NC(=O)[C@@H](N)CO)CSSC[C@@H](C(=O)N[C@@H](CO)C(=O)N[C@@H](Cc2ccccc2)C(=O)N[C@@H](CCCN=C(N)N)C(N)=O)NC(=O)CNC(=O)CNC(=O)[C@H](CC(C)C)NC(=O)CNC(=O)[C@H](CO)NC(=O)[C@H](CCC(N)=O)NC(=O)[C@H](C)NC(=O)CNC1=O (H-SCGFGGRIDRIGAQSGLGGCSFR-NH2; disulfide 2-20) | 1.5 | 0.0069 | 217 |
| CC[C@H](C)[C@@H]1NC(=O)[C@H](CCCN=C(N)N)NC(=O)[C@H](CC(=O)O)NC(=O)[C@H]([C@@H](C)CC)NC(=O)[C@H](CCCN=C(N)N)NC(=O)CNC(=O)CNC(=O)[C@H](Cc2ccccc2)NC(=O)[C@H](CO)NC(=O)[C@@H](NC(=O)[C@@H](N)CO)CSSC[C@@H](C(=O)N[C@@H](CC(N)=O)C(=O)N[C@@H](CO)C(=O)N[C@@H](Cc2ccccc2)C(=O)N[C@@H](CCCN=C(N)N)C(N)=O)NC(=O)CNC(=O)[C@H](CC(C)C)NC(=O)CNC(=O)[C@H](CO)NC(=O)[C@H](CCC(N)=O)NC(=O)[C@H](C)NC(=O)CNC1=O (H-SCSFGGRIDRIGAQSGLGCNSFR-NH2; disulfide 2-19) | 3.8 | 0.24 | 16 |
| CC[C@@H]1NC(=O)[C@@H](NC(=O)[C@@H](N)CO)CSSC[C@@H](C(=O)N[C@@H](CC(N)=O)C(=O)N[C@@H](CO)C(=O)N[C@@H](Cc2ccccc2)C(=O)N[C@@H](CCCN=C(N)N)C(N)=O)NC(=O)CNC(=O)[C@H](CC(C)C)NC(=O)CNC(=O)[C@H](CO)NC(=O)[C@H](CCC(N)=O)NC(=O)[C@H](C)NC(=O)CNC(=O)[C@H]([C@@H](C)CC)NC(=O)[C@H](CCCN=C(N)N)NC(=O)[C@H](CC(=O)O)NC(=O)[C@H]([C@@H](C)CC)NC(=O)[C@H](CCCN=C(N)N)NC(=O)CNC(=O)CNC(=O)[C@H](Cc2ccccc2)NC1=O (H-SC[Abu]FGGRIDRIGAQSGLGCNSFR-NH2; disulfide 2-19) | 2.1 | 0.053 | 40 |
| CCC[C@@H]1NC(=O)[C@@H](NC(=O)[C@@H](N)CO)CSSC[C@@H](C(=O)N[C@@H](CC(N)=O)C(=O)N[C@@H](CO)C(=O)N[C@@H](Cc2ccccc2)C(=O)N[C@@H](CCCN=C(N)N)C(N)=O)NC(=O)CNC(=O)[C@H](CC(C)C)NC(=O)CNC(=O)[C@H](CO)NC(=O)[C@H](CCC(N)=O)NC(=O)[C@H](C)NC(=O)CNC(=O)[C@H]([C@@H](C)CC)NC(=O)[C@H](CCCN=C(N)N)NC(=O)[C@H](CC(=O)O)NC(=O)[C@H]([C@@H](C)CC)NC(=O)[C@H](CCCN=C(N)N)NC(=O)CNC(=O)CNC(=O)[C@H](Cc2ccccc2)NC1=O (H-SC[Nva]FGGRIDRIGAQSGLGCNSFR-NH2; disulfide 2-19) | 0.75 | 0.0084 | 89 |
| CCC[C@@H]1NC(=O)CNC(=O)[C@H](CC(C)C)NC(=O)CNC(=O)[C@H](CO)NC(=O)[C@H](CCC(N)=O)NC(=O)[C@H](C)NC(=O)CNC(=O)[C@H]([C@@H](C)CC)NC(=O)[C@H](CCCN=C(N)N)NC(=O)[C@H](CC(=O)O)NC(=O)[C@H]([C@@H](C)CC)NC(=O)[C@H](CCCN=C(N)N)NC(=O)CNC(=O)CNC(=O)[C@H](Cc2ccccc2)NC(=O)[C@H](CCC)NC(=O)[C@@H](NC(=O)[C@@H](N)CO)CSSC[C@@H](C(=O)N[C@@H](CO)C(=O)N[C@@H](Cc2ccccc2)C(=O)N[C@@H](CCCN=C(N)N)C(N)=O)NC1=O (H-SC[Nva]FGGRIDRIGAQSGLG[Nva]CSFR-NH2; disulfide 2-20) | 0.47 | 0.001 | 470 |
| CC[C@H](C)[C@@H]1NC(=O)[C@H](CCCN=C(N)N)NC(=O)[C@H](CC(=O)O)NC(=O)[C@H]([C@@H](C)CC)NC(=O)[C@H](CCCN=C(N)N)NC(=O)CNC(=O)CNC(=O)[C@H](Cc2ccccc2)NC(=O)C(C)NC(=O)[C@@H](NC(=O)[C@@H](N)CO)CSSC[C@@H](C(=O)N[C@@H](CC(N)=O)C(=O)N[C@@H](CO)C(=O)N[C@@H](Cc2ccccc2)C(=O)N[C@@H](CCCN=C(N)N)C(N)=O)NC(=O)CNC(=O)[C@H](CC(C)C)NC(=O)CNC(=O)[C@H](CO)NC(=O)[C@H](CCC(N)=O)NC(=O)[C@H](C)NC(=O)CNC1=O (some centres undefined) (H-SC[ξA]FGGRIDRIGAQSGLGCNSFR-NH2; disulfide 2-19) | 2.2 | 0.088 | 25 |
| CC[C@H](C)[C@@H]1NC(=O)[C@H](CCCN=C(N)N)NC(=O)[C@H](CC(=O)O)NC(=O)[C@H]([C@@H](C)CC)NC(=O)[C@H](CCCN=C(N)N)NC(=O)CNC(=O)CNC(=O)[C@H](Cc2ccccc2)NC(=O)[C@@H](NC(=O)[C@H](CO)NC(=O)[C@@H](N)CO)CSSC[C@@H](C(=O)NCC(=O)N[C@@H](CC(N)=O)C(=O)N[C@@H](CO)C(=O)N[C@@H](Cc2ccccc2)C(=O)N[C@@H](CCCN=C(N)N)C(N)=O)NC(=O)[C@H](CC(C)C)NC(=O)CNC(=O)[C@H](CO)NC(=O)[C@H](CCC(N)=O)NC(=O)[C@H](C)NC(=O)CNC1=O (H-SSCFGGRIDRIGAQSGLCGNSFR-NH2; disulfide 3-18) | 0.91 |  | 1 |
| CC[C@H](C)[C@@H]1NC(=O)[C@H](CCCN=C(N)N)NC(=O)[C@H](CC(=O)O)NC(=O)[C@H]([C@@H](C)CC)NC(=O)[C@H](CCCN=C(N)N)NC(=O)CNC(=O)CNC(=O)[C@H](Cc2ccccc2)NC(=O)[C@@H](NC(=O)[C@H](CO)NC(=O)[C@@H](N)CO)CSSC[C@@H](C(=O)N[C@@H](CC(N)=O)C(=O)N[C@@H](CO)C(=O)N[C@@H](Cc2ccccc2)C(=O)N[C@@H](CCCN=C(N)N)C(N)=O)NC(=O)CNC(=O)[C@H](CC(C)C)NC(=O)CNC(=O)[C@H](CO)NC(=O)[C@H](CCC(N)=O)NC(=O)[C@H](C)NC(=O)CNC1=O (H-SSCFGGRIDRIGAQSGLGCNSFR-NH2; disulfide 3-19) | 1 |  | 1 |
